Laboratory results from patent US20110104256A1, “METHODS FOR TREATING OR PREVENTING COLORECTAL CANCER” (priority 2008, published 2011).
Marks after values point to notes of the source that are not given here.

Tested on: WiDr human colorectal adenocarcinoma cells
Assay: Inhibition of colorectal tumor growth in WiDr xenograft model
Assay type: in vivo, nude mouse (nu/nu)
Settings: for % Growth Inhibition: WiDr xenograft, nude mice
Description: In these experiments, 5 million WiDr human colorectal adenocarcinoma cells, mixed 1:1 with Matrigel, were inoculated subcutaneously to the flank of each nude mouse (nu/nu).

[1] = Day 10 post inoculation, 0.5 mg anti-IGF1R IP 2x/week, 40 mpk Sunitinib PO QD (Table 6)
[2] = Day 14 post inoculation, 0.5 mg anti-IGF1R IP 2x/week, 40 mpk Sunitinib PO QD (Table 6)
[3] = Day 17 post inoculation, 0.5 mg anti-IGF1R IP 2x/week, 40 mpk Sunitinib PO QD (Table 6)
[4] = Day 21 post inoculation, 0.5 mg anti-IGF1R IP 2x/week, 40 mpk Sunitinib PO QD (Table 6)
[5] = Day 24 post inoculation, 0.5 mg anti-IGF1R IP 2x/week, 40 mpk Sunitinib PO QD (Table 6)
[6] = Day 28 post inoculation, 0.5 mg anti-IGF1R IP 2x/week, 40 mpk Sunitinib PO QD (Table 6)
[7] = Day 35 post inoculation, 0.5 mg anti-IGF1R IP 2x/week, 40 mpk Sunitinib PO QD (Table 6)
[8] = 0.5 mg anti-IGF1R IP 2x/week, 40 mpk Sunitinib PO QD (Table 5)

Work on “anti-IGF1R: anti-IGF1R antibody with 15H12/19D12 immunoglobulin light chain-F (LCF, κ) and heavy chain-A (HCA, γ1)” yielded a Mean tumor volume [1] of 93.1 mm^3, a Mean tumor volume (Day 10 post inoculation, 0.5 mg anti-IGF1R, 10 mpk Leucovorin/60 mpk 5-FU, IP 2x/week (Table 3)) of 93.1 mm^3 and a Mean tumor volume [2] of 148.0 mm^3. It also gave a Mean tumor volume (Day 14 post inoculation, 0.5 mg anti-IGF1R, 10 mpk Leucovorin/60 mpk 5-FU, IP 2x/week (Table 3)) of 148.0 mm^3, a Mean tumor volume [3] of 192.0 mm^3 and a Mean tumor volume (Day 17 post inoculation, 0.5 mg anti-IGF1R, 10 mpk Leucovorin/60 mpk 5-FU, IP 2x/week (Table 3)) of 192.0 mm^3. It also gave a Mean tumor volume [4] of 254.1 mm^3, a Mean tumor volume (Day 21 post inoculation, 0.5 mg anti-IGF1R, 10 mpk Leucovorin/60 mpk 5-FU, IP 2x/week (Table 3)) of 254.1 mm^3 and a Mean tumor volume [5] of 317.0 mm^3. It also gave a Mean tumor volume (Day 24 post inoculation, 0.5 mg anti-IGF1R, 10 mpk Leucovorin/60 mpk 5-FU, IP 2x/week (Table 3)) of 317.0 mm^3, a Mean tumor volume [6] of 403.1 mm^3 and a Mean tumor volume (Day 28 post inoculation, 0.5 mg anti-IGF1R, 10 mpk Leucovorin/60 mpk 5-FU, IP 2x/week (Table 3)) of 403.1 mm^3. The Mean tumor volume (Day 31 post inoculation, 0.5 mg anti-IGF1R IP 2x/week, 40 mpk Sunitinib PO QD (Table 6)) was 474.5 mm^3, the Mean tumor volume (Day 31 post inoculation, 0.5 mg anti-IGF1R, 10 mpk Leucovorin/60 mpk 5-FU, IP 2x/week (Table 3)) was 474.5 mm^3 and the Mean tumor volume [7] was 577.6 mm^3. The Mean tumor volume (Day 35 post inoculation, 0.5 mg anti-IGF1R, 10 mpk Leucovorin/60 mpk 5-FU, IP 2x/week (Table 3)) was 577.6 mm^3, the “% Growth Inhibition” value [8] was 30% and the “% Growth Inhibition” value (0.5 mg anti-IGF1R IP 2x/week, 60 mpk 5-FU/10 mpk Leucovorin IP 2x/week (Table 2)) was 30%.
`CCN(CC)CCNC(=O)c1c(C)[nH]c(/C=C2\C(=O)Nc3ccc(F)cc32)c1C` [Sunitinib, sunitinib, reference compound] was tested, and the Mean tumor volume [1] was 95.8 mm^3, the Mean tumor volume [2] was 125.4 mm^3 and the Mean tumor volume [3] was 143.1 mm^3. For the same compound, the Mean tumor volume [4] was 175.6 mm^3, the Mean tumor volume [5] was 194.8 mm^3 and the Mean tumor volume [6] was 205.9 mm^3. The Mean tumor volume [7] was 238.6 mm^3 and the “% Growth Inhibition” value [8] was 79^a %.
